Measured values as given in ChEMBL document CHEMBL4431345, “A fluorescence polarization based assay for the identification and characterization of polymerase inhibitors” (Bioorg Med Chem Lett, 2016).

How the values were obtained:
[1] = Inhibition of Escherichia coli DNA polymerase 1 Klenow fragment preincubated for 15 mins followed by addition of DNA substrate for 60 mins in presence of dNTPS by picoGreen reagent based assay
[2] = Inhibition of Escherichia coli DNA polymerase 1 Klenow fragment preincubated for 15 mins followed by addition of DNA substrate for 60 mins in presence of dNTPS/TAMRA tracer by fluorescence polarization assay

- IC50 [1]: 69 µM
- IC50 [2]: 27 µM
Structure (SMILES): Nc1ncnc2c1ncn2[C@H]1CC[C@@H](COP(=O)(O)OP(=O)(O)OP(=O)(O)O)O1 [DDA-TRIPHOSPHATE]
